In ChEMBL document CHEMBL3832555, “DailyMed|setid=f0492050-a966-41be-80b5-a58da7ba2bcf | PERINDOPRIL ERBUMINE-perindopril erbumine tablet|Lannett Company, Inc”:

Test system: Homo sapiens
Experiment: Evaluation of pharmacokinetic parameters for PERINDOPRIL and its active metabolite, PERINDOPRILAT,following single oral administration of PERINDOPRIL ERBUMINE tablets
Assay type: ADME, organism-based
Settings: in vivo, dosed compound id 11, dosed compound name PERINDOPRIL ERBUMINE, tissue Plasma

F	Protein binding	Tmax	t1/2-elimination	t1/2	Compound
75%	60%	1 h	0.8 to 1 h		CC(C)(C)N.CCC[C@H](N[C@@H](C)C(=O)N1[C@H](C(=O)O)C[C@@H]2CCCC[C@@H]21)C(=O)OCC [PERINDOPRIL ERBUMINE]
25%	10 to 20%	3 to 7 h	30 to 120 h	3 to 10 h	CCC[C@H](N[C@@H](C)C(=O)N1[C@H](C(=O)O)C[C@@H]2CCCC[C@@H]21)C(=O)O [PERINDOPRILAT]
